# Results from patent publication EP0753300B1, “Use of antioxidative steroids for the manufacture of pharmaceutical preparations for substition therapy in man” (priority 1995, dated 1997).
# Experiments:
# ICAM-1 = assay: Inhibition of TNFα-induced ICAM-1 expression in cultured endothelial cells (histological assessment); type: cell-based, humanen Ursprungs; set-up: key: +: wenig wirksam; ++: gut wirksam; +++: sehr gut wirksam; settings: cultured human endothelial cells
# Text: (§1) J. Clin. Endocrinol. Metab. 7:1619-1624 (1994) ausgeführt. Als Vergleich zu […] 17β-Estradiol, welches mit (x) gekennzeichnet wurde. Tabelle 1
# [1] = type: in vivo, Mann
# Text: Die aufgezeigten Systeme […] Studie an ä[…]. […] Alter von 52 bis 63 Jahren über 6 Monate […] Probanden nahm eine weitere Medikation ein. Bei 6 der 12 Probanden ergab […]-, Leber- und […] vor Beginn der Studie bei allen Probanden unauffällig. Auch die Plasma-[…] Testosteron > 12 nmol/[…] Testosteron > 0,2 nmol/[…] 6 Probanden […] OGTT erhöhte Gesamtcholesterol- und […] die In-vivo-Bestimmung der LDL-Cholesterol-Oxidation und die Hormonanalysen wurden zu Studienbeginn, danach wöchentlich und einen Tag […] und morgendlichem Fasten jeweils zwischen 8 und 10 Uhr morgens).
# [2] = Adjuvant arthritis in male rats, oral, 21 days; type: in vivo, Lewis-Ratten; settings: for Sekundärarthritis Score: 8 per group, group sum, max. 72 (arthritic control); for % Hemmung Primärarthritis max. Wirkung: swelling of injected left hind paw
# Protocol: Die Adjuvansarthritis bei Lewis-Ratten ist ein gut bekanntes und etabliertes Modell für die chronische Rheumatoid-Arthritis des Menschen [Newbould BB: Chemotherapy of arthritis induced in rats by mycobacterial adjuvant. Br. J. Pharmacol. 21:127-136 (1963); Hirschelmann R: Die 6-Sulfanilamidoindazol-Arthritis und die Adjuvansarthritis der Ratte als Modelle zur Testung von Antiphlogistika. Dissertation B (Habil.-Schrift), Halle, 1976]
# Die Arthritis wurde durch Injektion von 0,1 ml Freund'sches Adjuvans in die linke Hinterpfote ausgelöst. Prüfparameter waren die Hemmung der Schwellung der linken Hinterpfote und der Grad der Sekundärarthritis durch Beurteilung der Schwellung der drei anderen Pfoten. Tabelle 3
# VCAM-1 = assay: Inhibition of TNFα-induced VCAM-1 expression in cultured endothelial cells (histological assessment); type: cell-based, humanen Ursprungs; settings: cultured human endothelial cells
# Text: as §1
# [3] = Pentetrazol kindling, seizure stages in male mice; type: in vivo, Mäuse
# Protocol: Aus Tabelle 2 ist ersichtlich, daß J 861 - 14,15α-Methylen-8-dehydro-17α-estradiol z.B. bereits in einer Dosierung von 1 mg/kg nach einmaliger oraler Gabe eine Stunde vor der krampfauslösenden Pentetrazol-Injektion an männlichen Mäusen das Krampfstadium 3 hemmt. In steigender Dosierung und bei längerer Substanzapplikation werden auch die anderen Krampfstadien beeinflußt.
# [4] = Carrageenin paw oedema of the male rat; type: in vivo, Ratte; settings: 24 hours after provocation of the oedema, inflammation no longer acute
# Estrogen-Rezeptor = molecular target: T1, Estrogen-Rezeptor (Oryctolagus cuniculus, UniProt G1SML6); assay: Estrogen receptor affinity, competitive binding with [3H]-Ethinylestradiol in uterus cytosol; set-up: species or system Kaninchen; settings: quotient of IC50 of 17β-Estradiol and of test substance; rabbit uterus cytosol; tracer [3H]-Ethinylestradiol 3 nM; 0 to 4 °C, 18 h
# T1 construct: Es wurden weibliche Kaninchen (weiße Neuseeländer) im Gewicht von 1,5 bis 2 kg in Barbituratnarkose getötet, die Uteri entnommen; from tissue; host or cells: rabbit uterus cytosol (100 000 g supernatant of the homogenate)
# T1 sequence (G1SML6 1-598): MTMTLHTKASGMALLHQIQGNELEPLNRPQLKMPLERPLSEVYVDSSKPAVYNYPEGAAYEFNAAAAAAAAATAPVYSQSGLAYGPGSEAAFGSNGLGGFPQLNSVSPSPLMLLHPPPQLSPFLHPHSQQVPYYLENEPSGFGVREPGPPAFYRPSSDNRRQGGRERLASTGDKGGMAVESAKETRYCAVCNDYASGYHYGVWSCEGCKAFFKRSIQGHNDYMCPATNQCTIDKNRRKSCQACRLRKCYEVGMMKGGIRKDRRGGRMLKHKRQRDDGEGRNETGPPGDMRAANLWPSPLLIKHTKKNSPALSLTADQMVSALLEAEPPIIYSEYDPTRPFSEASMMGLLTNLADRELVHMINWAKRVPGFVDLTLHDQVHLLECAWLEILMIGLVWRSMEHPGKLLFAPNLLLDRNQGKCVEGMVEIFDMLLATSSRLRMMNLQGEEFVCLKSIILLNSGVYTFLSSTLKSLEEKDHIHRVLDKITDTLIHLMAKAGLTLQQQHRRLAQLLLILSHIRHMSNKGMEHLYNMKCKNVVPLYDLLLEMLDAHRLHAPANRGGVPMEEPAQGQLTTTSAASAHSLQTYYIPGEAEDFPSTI
# Protocol: Die Affinität zum Estrogen Rezeptor wurde in Kaninchen-Uterus-Cytosol bestimmt durch competitive Bindung von ^3H-markiertem Tracer und der jeweils zu testenden Verbindungen in Konzentrationsreihen, die die IC50 einschlossen. […] Das nach Zentrifugieren bei 16 000 g und 100 000 g gewonnene Cytosol wurde portionsweise schockgefroren und bei -30 °C aufbewahrt. Das geeignet verdünnte Cytosol (Rezeptorkonzentration ca. 0,3 nM) wurde mit dem Tracer [^3H]-Ethinylestradiol (3nM) und den zu prüfenden Competitoren bei 0 bis 4 °C für 18 Stunden inkubiert. Der freie Tracer wurde durch Adsorption an Aktivkohle/Dextran (1 %/0,1 %) und Zentrifugation abgetrennt und die gebundene ^3H-Aktivität im Überstand gemessen.
# [5] = 1,0 mg/kg, single oral dose one hour before pentetrazol
smiles,measurement,setting,value
C[C@]12CC[C@@H]3c4ccc(O)cc4CC[C@H]3[C@@H]1CC[C@H]2O [17α-Estradiol],Hemmung der Expression von ICAM-1,ICAM-1,+ +
same,Einfluß auf die gewählten Hormonparameter,"[1]; 2 mg daily, 6 months, older men, includes missing SHBG rise",nicht signifikant beeinflußt
same,Schlafqualität und Libido,"[1]; 2 mg daily, 6 months, reported by subjects",Verbesserung
same,Freies Testosteron,"[1]; Versuchsende, after 6 months 2 mg daily, 12 overweight men 52-63 years, Versuchsbeginn 0.32 ± 0.14",0.33 ± 0.15 nmol/L
same,DHEA,"[1]; Versuchsende, after 6 months 2 mg daily, 12 overweight men 52-63 years, Versuchsbeginn 14.3 ± 10.6",13.46 ± 8.13 nmol/L
same,Gesamt-Testosteron,"[1]; Versuchsende, after 6 months 2 mg daily, 12 overweight men 52-63 years, Versuchsbeginn 16.5 ± 4.6",15.6 ± 5.1 nmol/L
same,Insulin,"[1]; Versuchsende, after 6 months 2 mg daily, 12 overweight men 52-63 years, Versuchsbeginn 17 ± 10",15 ± 9 mlE/L
same,SHBG,"[1]; Versuchsende, after 6 months 2 mg daily, 12 overweight men 52-63 years, Versuchsbeginn 38 ± 17",39 ± 18 nmol/L
same,DHEAS,"[1]; Versuchsende, after 6 months 2 mg daily, 12 overweight men 52-63 years, Versuchsbeginn 5412 ± 3711",5660 ± 3292 nmol/L
same,Lp(a),"[1]; Versuchsende, after 6 months 2 mg daily, Versuchsbeginn 6.0 ± 1.0",5.7 ± 0.7 mg/dL
same,LDL-Cholesterol,"[1]; Versuchsende, after 6 months 2 mg daily, Versuchsbeginn 154 ± 10.5",135 ± 5.2 mg/dL
same,Gesamt-Cholesterol,"[1]; Versuchsende, after 6 months 2 mg daily, Versuchsbeginn 225 ± 11.1, p<0.05",195 ± 5.7 mg/dL
same,Triglyceride,"[1]; Versuchsende, after 6 months 2 mg daily, Versuchsbeginn 226 ± 31.1, p<0.05",132 ± 1.5 mg/dL
same,LDL-Cholesterol-Oxidation,"[1]; older men under 17α-Estradiol, blood samples, figures not given",deutliche Verzögerung
same,Sekundärarthritis Score,[2]; 1 mg/kg oral,43
same,% Hemmung Primärarthritis max. Wirkung,[2]; 1 mg/kg oral,36%
same,Sekundärarthritis Score,[2]; 10 mg/kg oral,35
same,% Hemmung Primärarthritis max. Wirkung,[2]; 10 mg/kg oral,39%
same,Hemmung der Expression von VCAM-1,VCAM-1,+ +
"C[C@]12CC[C@@H]3c4ccc(O)cc4CC[C@H]3[C@@H]1CC[C@@H]2O [17β-Estradiol, reference compound]",Hemmung der Expression von ICAM-1,ICAM-1,+
same,Sekundärarthritis Score,[2]; 1 mg/kg oral,47
same,% Hemmung Primärarthritis max. Wirkung,[2]; 1 mg/kg oral,21%
same,Sekundärarthritis Score,[2]; 10 mg/kg oral,36
same,% Hemmung Primärarthritis max. Wirkung,[2]; 10 mg/kg oral,35%
same,Hemmung der Expression von VCAM-1,VCAM-1,+ +
"NC(=O)N1c2ccccc2C=Cc2ccccc21 [Carbamazepin, reference compound]",Krampfstadien 1/2 Kl (Krampfindex gesenkt),[3]; 24 mg/kg,-
same,Krampfstadien 1/2 LZ[s] (Latenzzeit bis zur Ausprägung der Krämpfe erhöht),[3]; 24 mg/kg,+
same,Krampfstadien 3 Kl (Krampfindex gesenkt),[3]; 24 mg/kg,-
same,Krampfstadien 3 LZ[s] (Latenzzeit bis zur Ausprägung der Krämpfe erhöht),[3]; 24 mg/kg,+
same,Krampfstadien 4/5/6 Kl (Krampfindex gesenkt),[3]; 24 mg/kg,+
same,Krampfstadien 4/5/6 LZ[s] (Latenzzeit bis zur Ausprägung der Krämpfe erhöht),[3]; 24 mg/kg,++
O=C(O)Cc1ccccc1Nc1c(Cl)cccc1Cl [Diclofenac-Natrium],Hemmeffekte,[4],nur noch geringe Hemmeffekte
"C[C@]12CCC3=C(CCc4cc(O)ccc43)[C@@H]1CC[C@H]2O [J 811, 8-Dehydro-17α-estradiol]",relative Bindungsaffinität zum Estrogen-Rezeptor (RBA),Estrogen-Rezeptor,21%
"C[C@]12CCC3=C(CCc4cc(O)ccc43)[C@@]13C[C@H]3C[C@H]2O [J 861, 14,15α-Methylen-8-dehydro-17α-estradiol]",relative Bindungsaffinität zum Estrogen-Rezeptor (RBA),Estrogen-Rezeptor,32%
same,Hemmung der Expression von ICAM-1,ICAM-1,+ + +
same,Sekundärarthritis Score,[2]; 1 mg/kg oral,72
same,% Hemmung Primärarthritis max. Wirkung,[2]; 1 mg/kg oral,16%
same,Sekundärarthritis Score,[2]; 10 mg/kg oral,46
same,% Hemmung Primärarthritis max. Wirkung,[2]; 10 mg/kg oral,38%
same,Sekundärarthritis Score,[2]; 25 mg/kg oral,38
same,% Hemmung Primärarthritis max. Wirkung,[2]; 25 mg/kg oral,61%
same,Sekundärarthritis Score,[2]; 50 mg/kg oral,35
same,% Hemmung Primärarthritis max. Wirkung,[2]; 50 mg/kg oral,47%
same,Krampfstadien 1/2 Kl (Krampfindex gesenkt),[3]; 10 mg/kg,-
same,Krampfstadien 1/2 LZ[s] (Latenzzeit bis zur Ausprägung der Krämpfe erhöht),[3]; 10 mg/kg,-
same,Krampfstadien 3 Kl (Krampfindex gesenkt),[3]; 10 mg/kg,++
same,Krampfstadien 3 LZ[s] (Latenzzeit bis zur Ausprägung der Krämpfe erhöht),[3]; 10 mg/kg,-
same,Krampfstadien 4/5/6 Kl (Krampfindex gesenkt),[3]; 10 mg/kg,+
same,Krampfstadien 4/5/6 LZ[s] (Latenzzeit bis zur Ausprägung der Krämpfe erhöht),[3]; 10 mg/kg,++
same,Krampfstadien 1/2 Kl (Krampfindex gesenkt),[3]; 100 mg/kg,-
same,Krampfstadien 1/2 LZ[s] (Latenzzeit bis zur Ausprägung der Krämpfe erhöht),[3]; 100 mg/kg,-
same,Krampfstadien 3 Kl (Krampfindex gesenkt),[3]; 100 mg/kg,++
same,Krampfstadien 3 LZ[s] (Latenzzeit bis zur Ausprägung der Krämpfe erhöht),[3]; 100 mg/kg,-
same,Krampfstadien 4/5/6 Kl (Krampfindex gesenkt),[3]; 100 mg/kg,+
same,Krampfstadien 4/5/6 LZ[s] (Latenzzeit bis zur Ausprägung der Krämpfe erhöht),[3]; 100 mg/kg,++
same,Krampfstadien 1/2 Kl (Krampfindex gesenkt),[3]; [5],-
same,Krampfstadien 1/2 LZ[s] (Latenzzeit bis zur Ausprägung der Krämpfe erhöht),[3]; [5],-
same,Krampfstadien 3 Kl (Krampfindex gesenkt),[3]; [5],+++
same,Krampfstadien 3 LZ[s] (Latenzzeit bis zur Ausprägung der Krämpfe erhöht),[3]; [5],-
same,Krampfstadien 4/5/6 Kl (Krampfindex gesenkt),[3]; [5],+
same,Krampfstadien 4/5/6 LZ[s] (Latenzzeit bis zur Ausprägung der Krämpfe erhöht),[3]; [5],+
same,Hemmung der Expression von VCAM-1,VCAM-1,+ + +
